Like-named read-outs stand apart in the source and are kept apart here.

A word on the IC50: it is the point on the concentration scale where inhibition reaches its midpoint.

Test [1] relates to phospho-ERK in MIA PaCa2 or H358 cells. Kind of test: Phospho-ERK assay (AlphaLisa). In kind it is cell-based. The note with it: MIA PaCa2 or H358 cells, compound incubated 1.5 hours, read-out: IC50 (p-ERK).
The target of another test is T1, SHP2 (full length) (Homo sapiens, UniProt Q06124).
T1 construct: SHP2 (full length, diluted to 100 pM final concentration in reaction buffer, BPS bioscience, US); purchased BPS bioscience, US
T1 sequence (Q06124 1-593): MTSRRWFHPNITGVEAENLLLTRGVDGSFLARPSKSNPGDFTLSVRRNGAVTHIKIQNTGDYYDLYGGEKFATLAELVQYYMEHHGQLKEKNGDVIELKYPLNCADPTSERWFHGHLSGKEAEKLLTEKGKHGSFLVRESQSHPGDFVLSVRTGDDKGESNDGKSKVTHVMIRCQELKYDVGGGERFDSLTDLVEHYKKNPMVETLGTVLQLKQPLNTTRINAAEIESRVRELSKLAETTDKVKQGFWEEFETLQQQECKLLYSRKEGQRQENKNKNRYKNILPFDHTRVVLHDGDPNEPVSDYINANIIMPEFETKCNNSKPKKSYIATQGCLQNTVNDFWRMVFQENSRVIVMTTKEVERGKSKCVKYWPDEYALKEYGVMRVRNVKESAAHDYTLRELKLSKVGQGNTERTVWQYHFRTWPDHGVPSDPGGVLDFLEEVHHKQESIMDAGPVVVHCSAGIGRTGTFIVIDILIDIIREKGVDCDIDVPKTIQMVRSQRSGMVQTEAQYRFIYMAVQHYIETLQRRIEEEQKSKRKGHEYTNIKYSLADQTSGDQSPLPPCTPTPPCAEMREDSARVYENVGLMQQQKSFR
Kind of test: Phosphatase assay (PTPase assay) with DiFMUP substrate. The format is biochemical. To be noted: SHP2 activated with SHP2 activating peptide; DiFMUP 80 μM, 2 hours; fluorescence; read-out: IC50 (PTPase aS say).

`COCCn1cnc2ccc(Sc3cnc(N4CCC5(CC4)Cc4ncsc4[C@H]5N)c(CO)n3)c(Cl)c2c1=O` [Example 169, (S)-6-((5-(6-amino-4,6-dihydrospiro[yclopenta[d]thiazole-5,4′-piperidin]-1′-yl)-6-(hydroxymethyl)pyrazin-2-yl)thio)-5-chloro-3-(2-methoxyethyl)quinazolin-4(3H)-one]: the IC50 in test [1] (1.5 h) is < 45 nM; at SHP2 (full length), < 3 nM.
For `COCCn1cnc2ccc(Sc3cnc(N4CCC5(CC4)Cc4scnc4[C@H]5N)c(CO)n3)c(Cl)c2c1=O` [Example 170, (S)-6-((5-(4-amino-4,6-dihydrospiro[yclopenta[d]thiazole-5,4′-piperidin]-1′-yl)-6-(hydroxymethyl)pyrazin-2-yl)thio)-5-chloro-3-(2-methoxyethyl)quinazolin-4(3H)-one] the same measures were < 45 nM and < 3 nM.
For `COCCn1cnc2ccc(Sc3cnc(N4CCC5(CC4)Cc4ncsc4[C@H]5N)c(C(N)=O)n3)c(Cl)c2c1=O` [Example 171, (S)-3-(6-amino-4,6-dihydrospiro[cyclopenta[d]thiazole-5,4′-piperidin]-1′-yl)-6-((5-chloro-3-(2-methoxyethyl)-4-oxo-3,4-dihydroquinazolin-6-yl)thio)pyrazine-2-carboxamide] the same measures were < 45 nM and < 3 nM.
As to `COCCn1cnc2ccc(Sc3cnc(N4CCC5(CC4)Cc4scnc4[C@H]5N)c(C(N)=O)n3)c(Cl)c2c1=O` [Example 172, (S)-3-(4-amino-4,6-dihydrospiro[cyclopenta[d]thiazole-5,4′-piperidin]-1′-yl)-6-((5-chloro-3-(2-methoxyethyl)-4-oxo-3,4-dihydroquinazolin-6-yl)thio)pyrazine-2-carboxamide], the IC50 in test [1] (1.5 h) is < 45 nM; at SHP2 (full length), < 3 nM.
Consider `NC(=O)c1nc(Sc2ccc3ncn(CC4CCOCC4)c(=O)c3c2Cl)cnc1N1CCC2(CC1)Cc1ncsc1[C@H]2N` [Example 174, (S)-3-(6-amino-4,6-dihydrospiro[cyclopenta[d]thiazole-5,4′-piperidin]-1′-yl)-6-((5-chloro-4-oxo-3-((tetrahydro-2H-pyran-4-yl)methyl)-3,4-dihydroquinazolin-6-yl)thio)pyrazine-2-carboxamide], for which the IC50 is < 45 nM in test [1] (1.5 h) and < 3 nM on SHP2 (full length).
For `COC(C)Cn1cnc2ccc(Sc3ncc(N4CCC5(CC4)Cc4ncsc4[C@H]5N)nc3N)c(Cl)c2c1=O` (some centres unmarked) [Example 176] the same measures were < 45 nM and < 3 nM.
The like results for `COC(C)Cn1cnc2ccc(Sc3ncc(N4CCC5(CC4)Cc4scnc4[C@H]5N)nc3N)c(Cl)c2c1=O` (some centres unmarked) [Example 177] were, in that order, < 45 nM and < 3 nM.
`COCCn1cnc2ccc(Sc3n[nH]c4nc(N5CCC6(CC5)CO[C@@H](C)[C@H]6N)cnc34)c(Cl)c2c1=O` [Example 178, 6-((6-((3S,4S)-4-amino-3-methyl-2-oxa-8-azaspiro[4.5]decan-8-yl)-1H-pyrazolo[3,4-b]pyrazin-3-yl)thio)-5-chloro-3-(2-methoxyethyl)quinazolin-4(3H)-one]: the IC50 in test [1] was < 45 nM; at SHP2 (full length), < 3 nM.
Consider `COCCn1cnc2ccc(Sc3cnc(N4CCC5(CCC[C@H]5N)CC4)cn3)c(Cl)c2c1=O` [Example 180, (R)-6-((5-(1-amino-8-azaspiro[4.5]decan-8-yl)pyrazin-2-yl)thio)-5-chloro-3-(2-methoxyethyl)quinazolin-4(3H)-one], for which the IC50 was 45 to 1500 nM in test [1] (1.5 h) and < 3 nM on SHP2 (full length).
Regarding `COCCn1cnc2ccc(Sc3ccc(N4CCC5(CC4)CO[C@@H](C)[C@H]5N)cn3)c(Cl)c2c1=O` [Example 181, 6-((5-((3S,4S)-4-amino-3-methyl-2-oxa-8-azaspiro[4.5]decan-8-yl)pyridin-2-yl)thio)-5-chloro-3-(2-methoxyethyl)quinazolin-4(3H)-one], the IC50 is 45 to 1500 nM in test [1] and 3 to 100 nM on SHP2 (full length).
The like results for `COCCn1cnc2ccc(Sc3cnc(N4CCC5(CC4)CO[C@@H](C)[C@H]5N)n4ccnc34)c(Cl)c2c1=O` [Example 182, 6-((5-((3S,4S)-4-amino-3-methyl-2-oxa-8-azaspiro[4.5]decan-8-yl)imidazo[1,2-c]pyrimidin-8-yl)thio)-5-chloro-3-(2-methoxyethyl)quinazolin-4(3H)-one] were, in that order, 45 to 1500 nM and 3 to 100 nM.
In the case of `Cn1c(N2CCN(C[C@H](N)Cc3ccncc3)CC2)nc(N)c(Sc2cccc(Cl)c2Cl)c1=O` [Example 186, (R)-6-amino-2-(4-(2-amino-3-(pyridin-4-yl)propyl)piperazin-1-yl)-5-((2,3-dichlorophenyl)thio)-3-methylpyrimidin-4(3H)-one], the IC50 in test [1] (1.5 h) is 45 to 1500 nM; on SHP2 (full length), > 100 nM.
As to `Cn1c(N2CCN(CC(N)Cc3cccnc3)CC2)nc(N)c(Sc2cccc(Cl)c2Cl)c1=O` (centres unmarked) [Example 188, 6-amino-2-(4-(2-amino-3-(pyridin-3-yl)propyl)piperazin-1-yl)-5-((2,3-dichlorophenyl)thio)-3-methylpyrimidin-4(3H)-one], the IC50 was > 1500 nM in test [1] (1.5 h) and > 100 nM at SHP2 (full length).
For `Cn1c(N2CCN(CC(N)CCc3ccccc3)CC2)nc(N)c(Sc2cccc(Cl)c2Cl)c1=O` (centres unmarked) [Example 189, 6-amino-2-(4-(2-amino-4-phenylbutyl)piperazin-1-yl)-5-((2,3-dichlorophenyl)thio)-3-methylpyrimidin-4(3H)-one] the same measures were > 1500 nM and > 100 nM.
For `Cn1c(N2CCN(CC(N)c3ccccc3)CC2)nc(N)c(Sc2cccc(Cl)c2Cl)c1=O` (centres unmarked) [Example 190, 6-amino-2-(4-(2-amino-2-phenylethyl)piperazin-1-yl)-5-((2,3-dichlorophenyl)thio)-3-methylpyrimidin-4(3H)-one] the same measures were > 1500 nM and > 100 nM.
On to `Cn1c(N2CCN(C[C@@H](N)c3ccccc3)CC2)nc(N)c(Sc2cccc(Cl)c2Cl)c1=O` [Example 191, (S)-6-amino-2-(4-(2-amino-2-phenylethyl)piperazin-1-yl)-5-((2,3-dichlorophenyl)thio)-3-methylpyrimidin-4(3H)-one], for which the figures for the IC50 (in test [1] (1.5 h); on SHP2 (full length)) were > 1500 nM and > 100 nM, respectively.
The like results for `Cn1c(N2CCN(CCN)CC2)nc(N)c(Sc2ccnc(Cl)c2Cl)c1=O` [Example 193, 6-amino-2-(4-(2-aminoethyl)piperazin-1-yl)-5-((2,3-dichloropyridin-4-yl)thio)-3-methylpyrimidin-4(3H)-one] were, in that order, > 1500 nM and > 100 nM.
`Cn1c(N2CCN(CCN)CC2)nc(N)c(Sc2cccc(Cl)c2Cl)c1=O` [Example 194, 6-amino-2-(4-(2-aminoethyl)piperazin-1-yl)-5-((2,3-dichlorophenyl)thio)-3-methylpyrimidin-4(3H)-one]: the IC50 in test [1] (1.5 h) is > 1500 nM; on SHP2 (full length), > 100 nM.
Regarding `Cn1c(N2CCN(CCN)CC2)nc(N)c(-c2cccc(Cl)c2Cl)c1=O` [Example 195], the results for the IC50 (in test [1] (1.5 h); on SHP2 (full length)) were > 1500 nM and > 100 nM, respectively.
Consider `Cn1c(N2CCN[C@@H](CN)C2)nc(N)c(Sc2cccc(Cl)c2Cl)c1=O` [Example 196], for which the IC50 in test [1] (1.5 h) is > 1500 nM; at SHP2 (full length), > 100 nM.
As to `Cn1c(N2CCN[C@H](CN)C2)nc(N)c(Sc2cccc(Cl)c2Cl)c1=O` [Example 197, (R)-6-amino-2-(3-(aminomethyl)piperazin-1-yl)-5-((2,3-dichlorophenyl)thio)-3-methylpyrimidin-4(3H)-one], the IC50 in test [1] is 45 to 1500 nM; on SHP2 (full length) it was 3 to 100 nM.
Consider `Cn1c(N2CCOC(CN)C2)nc(N)c(Sc2cccc(Cl)c2Cl)c1=O` (centres unmarked) [Example 198, 6-amino-2-(2-(aminomethyl)morpholino)-5-((2,3-dichlorophenyl)thio)-3-methylpyrimidin-4(3H)-one], for which the IC50 in test [1] (1.5 h) is > 1500 nM; at SHP2 (full length), > 100 nM.
With `Cn1c(N2CCN(CCCN)CC2)nc(N)c(Sc2cccc(Cl)c2Cl)c1=O` [Example 199, 6-amino-2-(4-(3-aminopropyl)piperazin-1-yl)-5-((2,3-dichlorophenyl)thio)-3-methylpyrimidin-4(3H)-one], the IC50 in test [1] (1.5 h) is > 1500 nM; on SHP2 (full length) it was > 100 nM.
In the case of `Cn1c(N2CCCN(CCN)CC2)nc(N)c(Sc2cccc(Cl)c2Cl)c1=O` [Example 200, 6-amino-2-(4-(2-aminoethyl)-1,4-diazepan-1-yl)-5-((2,3-dichlorophenyl)thio)-3-methylpyrimidin-4(3H)-one], the IC50 was > 1500 nM in test [1] (1.5 h) and > 100 nM at SHP2 (full length).
For the molecule `Cn1c(N2CCCN(CCCN)CC2)nc(N)c(Sc2cccc(Cl)c2Cl)c1=O` [Example 201, 6-amino-2-(4-(3-aminopropyl)-1,4-diazepan-1-yl)-5-((2,3-dichlorophenyl)thio)-3-methylpyrimidin-4(3H)-one], the results for the IC50 (in test [1] (1.5 h); at SHP2 (full length)) were > 1500 nM and > 100 nM, respectively.

The record behind these values is US12029739B2, “SHP2 inhibitor and use thereof” (KANAPH THERAPEUTICS INC., priority 2021, dated 2024).
